Patent publication US10066204B2, “Chemically labile peptide-presenting surfaces for cellular self-assembly” (Wisconsin Alumni Research Foundation, priority 2013, dated 2018)
Where two headings read alike, the source gives them in different places.

How the values were obtained:
hESC (H1) = details: for cell adhesion of the hESC monolayer by adhesion ligand on the array spot: FIG. 2B/2C
Description: Gold slides were placed into a 150 mm glass Petri dish, covered with EtOH and sonicated for ˜1 minute using an ultrasonic bath (Bransonic 1510, Branson, Danbury, Conn.). Sonicated gold chips were then rinsed with EtOH and blown dry with N2. […] For spot shape, elastomeric stencils with arrays in the shape of circles, ovals, and oval cross were placed on a bare gold surface to form an array of wells having these shapes on the gold substrate. Wells were then filled with 1 mM ethanolic alkanethiolate solution and incubated for 10 minutes in a chamber containing a laboratory wipe soaked in ethanol to prevent evaporation during local SAM formation. Alkanethiolate solutions were then aspirated and wells were rinsed with DIUF H2O. Carboxylate groups were then converted to active ester groups by adding a solution of 100 mM NHS and 250 mM EDC in DIUF H2O pH 5.5 to wells and incubated for 10 minutes. After an additional rinse with DIUF H2O, 300 μM solutions of […] (SEQ ID NO: 5; commercially available from GenScript, Piscataway, N.J.) or […] (SEQ ID NO: 6; commercially available from GenScript, Piscataway, N.J.) in PBS and pH 7.4 were added to each well and incubated for 1 hour in a humidity controlled chamber to covalently couple peptides to each array spot. After a final rinse in DIUF H2O, regions surrounding array spots were backfilled with HS—C11-EG3-OH. This was accomplished by submerging the gold substrate and attached elastomeric stencil in an aqueous 0.1 mM HS—C11-EG3-OH solution (pH 2.0), removing the stencil, and incubating for 10 minutes. Following backfilling, the array was rinsed with 0.1 wt % SDS in DIUF H2O, DIUF H2O, and EtOH and then dried under a stream of N2. Arrays were stored in sterile DIUF H2O at 4° C. and used within 24 hours.
Pluripotent stem cells were seeded on arrays at a density of 10^5 cells/cm^2. […] Colonies that spontaneously detached from SAM spots were also harvested. Colonies were analyzed for Oct 3/4 and Nanog expression by immunofluorescence using DAPI to stain nuclei.
The concentration of the integrin adhesion peptides […] (SEQ ID NO: 1) and cyclic RGD (SEQ ID NO: 4) on the array spot was varied between 2% and 10% by the fraction of COOH groups functionalized with peptides present at the spot among background OH functionalities.
After initial attachment of the cells to the glycosaminoglycan binding peptide […]
Specifically, a 1:1 functionalization with cyclic RGD (SEQ ID NO: 4) and […]

[1] = system: hESC monolayers (H1 hESC line); details: for effect of soluble peptide on kinetics of aggregate assembly: 0.1 mM soluble peptide in culture media; for change in hESC colony projected area (indicative of aggregate self-assembly): both 5% COOH and 0.5% COOH SAMs
Description: Gold slides were placed into a 150 mm glass Petri dish, covered with EtOH and sonicated for 2 minutes using an ultrasonic bath (Bransonic 1510, Branson, Danbury, Conn.). Sonicated gold chips were then rinsed with EtOH and blown dry with N2. […] Wells were then filled with 1 mM ethanolic alkanethiolate solution and incubated for approximately 10 minutes at room temperature in a chamber containing a laboratory wipe soaked in ethanol to prevent evaporation during local SAM formation. Alkanethiolate solutions were then aspirated and wells were rinsed with DIUF H2O. Carboxylate groups were then converted to active ester groups by adding a solution of 100 mM NHS and 250 mM EDC (in pH 5.5 DIUF H2O) to wells and incubating for 15 minutes. After an additional rinse with DIUF H2O, 300 μM solutions of peptide(s) in pH 7.4 PBS were added to each well and incubated for 1 hour in a humidity-controlled chamber at room temperature to covalently couple peptides to each array spot. After a final rinse in DIUF H2O, regions surrounding array spots were backfilled with HS—C11-EG3-OH. This was accomplished by submerging the gold substrate and attached elastomeric stencil in an aqueous 0.1 mM HS—C11-EG3-OH solution (pH 2.0), removing the stencil, and incubating for 10 minutes. Following backfilling, the array was rinsed with 0.1 wt % SDS in DIUF H2O, DIUF H2O, and EtOH, and then dried under a stream of N2. Arrays were stored away from light in diH2O at room temperature and used within 24 hours.
Pluripotent stem cells (H1 hESC line) were seeded on arrays at a density of approximately 2×10^5 cells/cm^2 to achieve confluent monolayers within 4 hours.
(§1) Time lapse images were analyzed using edge detection software to track projected area of colonies with respect to initial colony area over time. A t50 of self-assembly was defined as the length of time required for a given patterned cell monolayer to reach 50% of its original 2D projected area, as assessed by automated edge detection. This metric is used throughout this specification to describe differences in the kinetics of aggregate self-assembly between different cell types and in different conditions.

hESC monolayers [2] = details: 5% SAMs
Description: Colonies were analyzed for Oct4 and Nanog expression by immunofluorescence using DAPI to stain nuclei.
Self-assembled EBs formed from largely pluripotent 2D hESC populations. hESC monolayers cultured on array spots were stained for pluripotency markers Oct4 and Nanog, as well as DAPI to identify cell nuclei. […] Quantification of positive staining for Oct4 and Nanog, relative to number of cells as quantified by DAPI staining, is shown in FIG. 25B. […] Nanog was expressed by 89% and 93% of hESCs in monolayers at 4 hours and 24 hours, respectively.

hMSC monolayers = system: hMSC monolayers
Description: as §1
hMSCs or hDFs were seeded on arrays at a density of ˜1×10^5 cells/cm^2 to achieve confluent monolayers within 4 hours. Cells were cultured on SAMs in αMEM media containing 10% fetal bovine serum (FBS) for 2 hours after seeding. At this time, SAM arrays were rinsed in basal medium to remove nonspecifically adhered cells and replaced in fresh αMEM+10% FBS.
In this Example, the beginning of self-assembly is characterized by the time point at which an evident decrease in projected area of the cell monolayer first occurs. The completion of self-assembly is considered the time point at which no further decreases in monolayer projected area occur, and is marked by the appearance of a plateau in graphical traces of monolayer projected area (see FIG. 28A).

hESC monolayers [3] = details: 5% SAMs, circular spots of 1.2 mm diameter
Description: Polymer stencils containing arrays of wells were created using soft lithography. Master molds containing arrays of 1.2 mm, 1.8 mm, and 2.4 mm diameter circular posts or oval-shaped or quatrefoil-shaped posts were fabricated from SU-8 (Microchem, Newton, Mass.) spin-coated silicon wafers using conventional photolithography techniques. Polydimethylsiloxane (PDMS) (Sylgard 184, Dow Corning, Midland, Mich.) was prepared by mixing a 10:1 ratio of base:curing agent (w/w) followed by degassing for approximately 45 minutes. The degassed mixture was cast over the mold and cured for 6 hours at 80° C. Following curing, PDMS stencils were removed from molds and cleaned in hexane using overnight Soxhlet extraction.

hESCs (H1 line) = details: EBs from 5% SAMs, 24 hours post-assembly

Substance: CGKKQRFRHRNRKG
- cell adhesion of the hESC monolayer by adhesion ligand on the array spot (hESC (H1)): significantly less cell attachment
- time until cells detached after initial attachment (hESC (H1); array spots presenting the peptide): ≤ 12 h

Substance: GWGGRGDSP
- cell adhesion of the hESC monolayer by adhesion ligand on the array spot (hESC (H1)): best cell adhesion

Substance: GWGGRGESP [reference compound]
- cell adhesion of the hESC monolayer by adhesion ligand on the array spot (hESC (H1)): No significant differences

Substance: KRTGQYKL
- cell adhesion of the hESC monolayer by adhesion ligand on the array spot (hESC (H1)): no significant adhesion

Substance: cyclo(RADFDK) [reference compound]
- effect of soluble peptide on kinetics of aggregate assembly ([1]; hESC on 5% cyclo(RGDFDC) SAMs): no evident effect

Substance: cyclo(RGDFDC)
- hESC cell adhesion as a function of adhesion ligand density (hESC (H1); 2% COOH fraction compared to 5% COOH, 4 to 48 hours in culture): significantly lower cell adhesion
- hESC cell adhesion as a function of adhesion ligand density (hESC (H1); 10% COOH fraction compared to 5% COOH): did not lead to an improved attachment
- cell adhesion of the hESC monolayer by adhesion ligand on the array spot (hESC (H1)): best cell adhesion
- hESCs in monolayers expressing Nanog (hESC monolayers [2]; 4 hours after seeding): 89%
- hESCs in monolayers expressing Oct4 (hESC monolayers [2]; 4 hours after seeding): greater than 97%
- hESCs in monolayers expressing Nanog (hESC monolayers [2]; 24 hours after seeding): 93%
- hESCs in monolayers expressing Oct4 (hESC monolayers [2]; 24 hours after seeding): 93%
- beginning of self-assembly after initial seeding (hMSC monolayers): ≤ 24 h
- completion of self-assembly after initial seeding (hMSC monolayers): ≤ 36 h
- t50 of self-assembly of hMSCs (hMSC monolayers): approximately 30 hours
- time to form self-assembled EBs (hESC monolayers [3]): ≤ 72 h
- Nanog+ cells dissociated from EBs (hESCs (H1 line)): approximately 91%
- Oct4+ cells dissociated from EBs (hESCs (H1 line)): approximately 99%
- effect of soluble peptide on kinetics of aggregate assembly ([1]; hESC on 5% cyclo(RGDFDC) SAMs): most rapid aggregate assembly
- time of forming three-dimensional cellular aggregates floating in suspension ([1]; 5% COOH SAMs): 72 to 96 h
- effect of soluble peptide on kinetics of aggregate assembly versus control ([1]; […] soluble peptide in culture media, hESC on 5% cyclo(RGDFDC) SAMs): faster aggregate assembly
- change in hESC colony projected area (indicative of aggregate self-assembly) [1]: evident decreases
- t50 of self-assembly ([1]; hESC, 0.01% peptide SAMs): approximately 14 hours
- t50 of self-assembly ([1]; hESC, 0.5% COOH SAMs): approximately 22 hours
- beginning of the self-assembly process after initial seeding ([1]; hESC, 5% COOH SAMs): 40 to 48 h
- completion of the self-assembly process after initial seeding ([1]; hESC, 5% SAMs): ≤ 72 h
- t50 of self-assembly ([1]; hESC, 5% peptide SAMs): approximately 45 hours

Substance: cyclo(RGDFDK) [reference compound]
- cellular self-assembly behavior of hESC monolayers ([1]; 5% COOH SAMs): no cellular self-assembly behavior
- change in hESC colony projected area (indicative of aggregate self-assembly) [1]: no such decreases
- detachment of hESC monolayers ([1]; over 96 hours): no observable detachment
